We go through two molecules from patent US20220409743A1, “VIRUS-MIMETIC NANOPARTICLES” (UNIVERSITÄT REGENSBURG, priority 2019, published 2022).

One experiment has as its target T1, AT1R (Rattus norvegicus, UniProt P25095).
T1 sequence (P25095 1-359): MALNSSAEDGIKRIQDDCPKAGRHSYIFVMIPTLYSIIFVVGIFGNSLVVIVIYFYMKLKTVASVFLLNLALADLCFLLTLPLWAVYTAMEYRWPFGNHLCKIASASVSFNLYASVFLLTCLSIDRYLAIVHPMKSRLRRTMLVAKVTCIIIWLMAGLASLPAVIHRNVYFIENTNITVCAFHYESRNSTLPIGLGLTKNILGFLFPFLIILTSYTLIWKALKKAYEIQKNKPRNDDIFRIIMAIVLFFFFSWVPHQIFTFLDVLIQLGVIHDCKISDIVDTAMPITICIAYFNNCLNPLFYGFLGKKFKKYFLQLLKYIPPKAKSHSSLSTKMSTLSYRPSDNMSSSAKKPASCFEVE
As to the kind of experiment: Intracellular calcium measurement (Fura-2): ligand affinity and particle avidity for the AT1R. As to conditions: read-out: IC50, ligand affinity for the AT1R; free ligand; rMCs incubated 30 min prior to stimulation with Ang-II. A general note: Calcium assays in cells follow changes in intracellular calcium, usually with a dye or a luminescent sensor.

The next experiment deals with T2, sGC (Rattus norvegicus, UniProt P20595).
T2 construct: endogenous in cells; host or cells: mesangial cells
T2 sequence (P20595 1-619): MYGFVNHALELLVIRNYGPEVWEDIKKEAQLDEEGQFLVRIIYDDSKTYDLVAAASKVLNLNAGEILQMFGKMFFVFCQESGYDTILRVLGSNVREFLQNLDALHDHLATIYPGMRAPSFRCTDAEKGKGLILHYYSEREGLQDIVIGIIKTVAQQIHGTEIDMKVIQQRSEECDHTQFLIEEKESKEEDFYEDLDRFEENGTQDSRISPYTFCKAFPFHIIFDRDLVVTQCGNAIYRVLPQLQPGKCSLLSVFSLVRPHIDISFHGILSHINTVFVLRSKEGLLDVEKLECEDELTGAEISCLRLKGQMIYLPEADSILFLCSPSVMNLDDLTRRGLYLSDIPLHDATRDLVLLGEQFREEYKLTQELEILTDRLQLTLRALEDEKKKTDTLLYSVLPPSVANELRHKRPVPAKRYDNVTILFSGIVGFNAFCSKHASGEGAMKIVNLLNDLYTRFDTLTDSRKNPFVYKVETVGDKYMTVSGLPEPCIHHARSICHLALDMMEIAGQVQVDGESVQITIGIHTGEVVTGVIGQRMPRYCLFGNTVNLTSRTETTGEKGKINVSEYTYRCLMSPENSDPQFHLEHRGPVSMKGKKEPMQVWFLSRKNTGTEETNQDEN
T2 sequence (P19686 1-690 partner): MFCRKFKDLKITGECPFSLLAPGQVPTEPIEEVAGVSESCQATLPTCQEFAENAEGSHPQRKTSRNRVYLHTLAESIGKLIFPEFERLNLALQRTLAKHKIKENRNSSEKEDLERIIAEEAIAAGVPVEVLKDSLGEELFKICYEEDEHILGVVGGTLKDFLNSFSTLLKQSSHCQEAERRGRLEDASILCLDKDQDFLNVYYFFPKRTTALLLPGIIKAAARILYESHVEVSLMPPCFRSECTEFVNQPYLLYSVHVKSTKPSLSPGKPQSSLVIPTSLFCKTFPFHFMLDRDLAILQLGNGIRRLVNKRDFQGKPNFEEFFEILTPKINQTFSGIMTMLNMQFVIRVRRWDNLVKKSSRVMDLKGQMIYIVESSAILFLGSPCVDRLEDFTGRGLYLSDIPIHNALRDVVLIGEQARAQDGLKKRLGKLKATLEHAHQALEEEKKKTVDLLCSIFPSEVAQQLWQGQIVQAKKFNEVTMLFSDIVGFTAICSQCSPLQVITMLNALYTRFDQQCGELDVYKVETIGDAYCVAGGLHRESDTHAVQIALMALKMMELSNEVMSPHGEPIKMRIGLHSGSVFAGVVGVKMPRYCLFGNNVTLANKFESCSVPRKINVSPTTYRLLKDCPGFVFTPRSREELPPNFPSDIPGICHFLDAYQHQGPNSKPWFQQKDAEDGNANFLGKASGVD
As to the kind of experiment: Western Blot of sGC levels in mesangial cells. As to conditions: 24 h incubation; free CCG 2 μM, NPs 0.2 μM CCG. The experiment is classed as cell-based. As to the method:
(§1) In the inventors' experimental set-up, CCG was initially encapsulated in hetero-multivalent EXPcRGD NPs. Resulting NPs carried approximately 500-700 CCG molecules per NP (data not shown). In all following experiments, the administration of free cinaciguat at a concentration of 2 μM was compared to CCG-loaded EXPcRGD NPs at a concentration of approximately 0.5 nM (equaling 0.2 μM of CCG) and drug-free EXPcRGD control NPs (FIG. 30). […] CCG-carrying NPs however carried only 10% of respective CCG amount to test a possible drug delivery effect.
To assess the effect of CCG-loaded EXPcRGD NPs on target sGC, mesangial cells were initially incubated for 24 h and protein quantity was assessed using Western Blot analysis.

The next experiment concerns PGK1-α. The experiment in a line: Western Blot of VASP phosphorylation (PGK1-α activity). The experiment is classed as cell-based. As to conditions: free CCG 2 μM, NPs 0.2 μM CCG. As to the method:
To assess PGK1-αactivity, phosphorylation of its substrate vasodilator-stimulated phosphoprotein (VASP) was assessed. […] (n=3; ****P<0.0001; ***P<0.001; **P<0.01; *P<0.05).
as §1
In general terms: In western blotting, separated proteins are transferred to a membrane and probed.

The next experiment concerns mesangial cells. The experiment in a line: Proliferation assay of TGF-β stimulated mesangial cells. It counts as cell-based. As to conditions: 4 h pre-incubation, 10 ng mL^−1 TGF-β 48 h. The procedure:
(§2) Finally, the anti-fibrotic and anti-proliferative potential of a NP-assisted CCG delivery was analyzed. In that regard, mesangial cells were initially incubated for 4 h either with free CCG, CCG-loaded EXPcRGD NPs or control NPs without encapsulated drug. After 4 h, 10 ng mL^−1 of transforming growth factor β (TGF-β) were added for 48 h to induce a fibrotic and hyperproliferative remodeling.

A further experiment relates to α-SMA. As to the kind of experiment: Western Blot / LSM of fibrosis marker α-SMA after TGF-β. The experiment is classed as cell-based. As to conditions: 4 h pre-incubation, 10 ng mL^−1 TGF-β 48 h. As to the method: as §2
In the next experiment the test system is Collagen I. As to the kind of experiment: Western Blot of fibrosis marker Collagen I after TGF-β. The experiment is classed as cell-based. As to conditions: 4 h pre-incubation, 10 ng mL^−1 TGF-β 48 h. The procedure: as §2

Method for AT1R: In order to assess the AT1R interaction of the different NP formulations a ratiometric Fura-2 Ca^2+ chelator method was used as previously described [1, 3] using AT1R positive rMCs. For that purpose, rMCs were seeded in T-150 flasks (Corning) and incubated until confluent. […] Cells were incubated for 1 hour, light protected, with gentle agitation (50 rpm). Afterwards, the cell suspension was washed with DPBS by centrifugation (2×, 200 g, 5 min, RT), and resuspended in Leibovitz medium supplemented with 2.5 mM Probenecid at a count of 2 million cells/mL. […] To determine the kinetics of the AT1R interaction (FIG. 3D) the same procedure was used, but the samples were incubated for different time periods (from 5 to 320min) with the cells. The maximal and minimal signal ratio, was determined by stimulating the cells with 0.1% Triton-X 100 or 0.1% Triton-X 100 with 45 mM ethylene glycol-bis(2-aminoethylether)-N,N,N′,N′-tetraacetic acid (EGTA), respectively.

As usually defined, the IC50 is the midpoint of a concentration-inhibition curve. As to “angiotensin-I (DRVYIHPFHL; Angiotensin-1; UniProt P01019 25-34, looked up) [Ang-I]”, the IC50 with AT1R was 900 ± 600 nM.
Consider `O=C(O)CCCCN(CCc1ccccc1OCc1ccc(CCc2ccccc2)cc1)Cc1ccc(C(=O)O)cc1` [CCG, Cinaciguat], for which, at sGC, the sGC levels result is given as “substantial increase in sGC levels”. Further, the P-VASP/VASP ratio result with PGK1-α is given as “considerable increase in P-VASP/VASP ratio”. Moreover, the “Effect on TGF-β induced hyperproliferation” value in the experiment on mesangial cells is given as “considerably decreased this effect”. In addition, the “α-SMA levels compared to the TGF-β control” value with α-SMA is listed as “drastic reduction”. Also, the “Collagen I levels compared to the TGF-β control” value with Collagen I was “drastic reduction”.
